Assay results from patent US9963486B2, “Peptidomimetics for treating HER2-overexpressed cancer” (Board of Supervisors for the University of Louisiana System, priority 2014, dated 2018).
Where two headings read alike, the source gives them in different places. Each block holds one molecule with its values, some of them ahead of it. Numbered stars: 1 amine (or outer) side, 2 acyl side, 3 side chain; on linkers, the order of the positions; unused ones are H or OH. Square brackets hold non-standard residues; d marks the D form. Peptide text beside a SMILES is read from it. βAla(3R-(1-naphthyl)) = O=C(C[C@@H](N[*:1])c1cccc2ccccc12)[*:2]; X1 = O=C(CC(N[*:1])c1cccc2ccccc12)[*:2]

Experiments:
[1] = tested on: BT-474 HER2-overexpressing breast cancer cells
Description: (§1) Compounds were tested for antiproliferative activity against several cancer cell lines and a control cell line. […] CP was the control peptidomimetic. […] SKOV-3 and Calu-3 are HER2-overexpressing ovarian and lung cancer cells, respectively. (+) and (−) indicate HER2-positive and HER2-negative, respectively.

[2] = tested on: BT-474 HER2-overexpressing breast cancer cells; test: cells; settings: Homo sapiens, BT-474, read-out: IC50 BT-474 (+)
Description: as §1

[3] = tested on: HER2-expressing breast tumors (BT-474 cells); test: BT-474 xenograft model of breast cancer, tumor volume; assay type: in vivo, nude mice; settings: 4 mg/kg injected just below the tumor, twice a week for 19 days; Days 9-19
Description: We evaluated the ability of Compound 18 to suppress HER2-expressing breast tumors in a xenograft model of breast cancer. Breast cancer tumors were induced in nude mice by injecting 2 million BT-474 cells; these estrogen-dependent cancer cells were stimulated by an implanted estrogen pellet. Compound 9, Compound 18, vehicle, or lapatinib (positive control) were injected just below the tumor at a dose of 4 mg/kg, twice a week for 19 days, for a total of 6 injections. Mice weight and health were monitored daily. Tumor size was measured with Vernier calipers. Tumor volume was estimated using the formula Volume=length×0.5 (width)^2. At the end of the experimental period, mice were euthanized and tumor sections were removed and frozen for further analysis. FIG. 9 depicts tumor volume as a function of time for the various treatments.

[4] = tested on: SKBR-3 HER2-overexpressing breast cancer cells
Description: as §1

[5] = tested on: MCF-7 breast cancer cells that do not overexpress HER2
Description: as §1

[6] = tested on: Calu-3 HER2-overexpressing lung cancer cells
Description: as §1

[7] = Stability in mouse serum (electrospray-mass spectrometry)
Description: (§2) Compounds were incubated in mouse serum for various times, and then extracted using a solid-phase extraction technique. The compounds were analyzed with electrospray-mass spectrometry. A known amount of a freshly-prepared internal standard was used for calibration.

[8] = tested on: SKOV-3 HER2-overexpressing ovarian cancer cells
Description: as §1

[9] = tested on: MCF-10A normal breast epithelial cell line
[10] = mouse, serum
Description: as §2

[11] = read-out: IC50 SKBR-3 (+), antiproliferative activity, HER2-positive breast cancer cells, Table 3
[12] = read-out: IC50 SKOV-3 (+), antiproliferative activity, HER2-positive ovarian cancer cells, Table 3
[13] = read-out: IC50 BT-474 (+), antiproliferative activity, HER2-positive breast cancer cells, Table 3
[14] = read-out: IC50 MCF-7 (−), antiproliferative activity, HER2-negative breast cancer cells, Table 3
[15] = read-out: IC50 Calu-3 (+), antiproliferative activity, HER2-positive lung cancer cells, Table 3

IC50 [1]: 850 ± 70 nM
Molecule: N=C(N)NCCC[C@H]1NC(=O)[C@H]2CCCN2C(=O)[C@@H]2CCCN2C(=O)[C@@H](CC(=O)O)NC(=O)[C@@H](Cc2ccccc2)NC(=O)C[C@H](c2cccc3ccccc23)NC(=O)[C@@H](CCCNC(=N)N)NC(=O)[C@@H](CC(=O)O)NC(=O)[C@@H](Cc2ccccc2)NC(=O)C[C@H](c2cccc3ccccc23)NC1=O [Compound 41, Cyclo(Ppr-(R)Anapa-fdr-(R)Anapa-fd] (cyclo(P[dP][dR][βAla(3R-(1-naphthyl))][dF][dD][dR][βAla(3R-(1-naphthyl))][dF][dD]))

IC50 [2]: 25 ± 4 nM
Molecule: CS(=O)(=O)CCNCc1ccc(-c2ccc3ncnc(Nc4ccc(OCc5cccc(F)c5)c(Cl)c4)c3c2)o1 [Lapatinib, reference compound]
tumor volume compared to control [3]: decreased tumor volume

Molecule: N=C(N)NCCC[C@H]1NC(=O)[C@H]2CCCN2C(=O)[C@@H]2CCCN2C(=O)[C@@H](CCCNC(=N)N)NC(=O)C[C@H](c2cccc3ccccc23)NC(=O)[C@@H](Cc2ccccc2)NC(=O)[C@@H](CC(=O)O)NC(=O)[C@@H](CC(=O)O)NC(=O)[C@@H](Cc2ccccc2)NC(=O)C[C@H](c2cccc3ccccc23)NC1=O [Compound 38, Cyclo(Ppr-(R)Anapa-fddf-(R)Anapa-r] (cyclo(P[dP][dR][βAla(3R-(1-naphthyl))][dF][dD][dD][dF][βAla(3R-(1-naphthyl))][dR]))
IC50 ([4]; read-out: Antiproliferative activity IC50 SKBR-3, Table 5): 800 ± 70 nM | IC50 ([1]; read-out: Antiproliferative activity IC50 BT-474, Table 5): 860 ± 50 nM | IC50 ([5]; read-out: Antiproliferative activity IC50 MCF-7, Table 5): 13500 ± 700 nM | IC50 ([6]; read-out: Antiproliferative activity IC50 Calu-3, Table 5): 550 ± 200 nM

Molecule: N=C(N)NCCC[C@H](N)C(=O)NC(CC(=O)N[C@@H](Cc1ccccc1)C(=O)O)c1cccc2ccccc12 (some centres unmarked) [Compound 5, H2N-R(Anapa)F-OH]
IC50 [4, 11]: 396 ± 22 nM | half-life ([7]; mouse, serum): 2 to 3 h | IC50 [8, 12]: 658 ± 40 nM

IC50 [4]: 500 ± 280 nM | IC50 [1]: 400 ± 140 nM | IC50 [5]: > 100000 nM | IC50 [6]: 900 ± 200 nM
Molecule: N=C(N)NCCC[C@@H]1NC(=O)[C@H]2CCCN2C(=O)[C@@H]2CCCN2C(=O)[C@H](CCCCN)NC(=O)C[C@H](c2cccc3ccccc23)NC(=O)[C@H](Cc2ccccc2)NC(=O)[C@H](CC(=O)O)NC(=O)[C@H](CC(=O)O)NC(=O)[C@H](Cc2ccccc2)NC(=O)C[C@H](c2cccc3ccccc23)NC1=O [Compound 33, Cyclo(PpR-(R)Anapa-FDDF-(R)Anapa-K]

IC50 [4, 11]: 445 ± 32 nM | IC50 [1, 13]: 785 ± 11 nM | IC50 [5, 14]: 45000 nM | IC50 [6, 15]: 847 ± 71 nM | time within which degraded in mouse serum ([7]; mouse serum, FIG. 10): ≤ 24 h | IC50 [8, 12]: 417 ± 55 nM
Molecule: H2N-R(Anapa)FD-OH [Compound 9]
tumor volume compared to control [3]: decreased tumor volume

Molecule: H2N-K(3-amino-biphenyl propionic acid)F-OH [CP, reference compound]
IC50 [4, 11]: > 100000 nM | IC50 [1, 13]: > 100000 nM | IC50 [5, 14]: > 100000 nM | IC50 [6, 15]: > 100000 nM | IC50 [8, 12]: > 100000 nM

Molecule: N=C(N)NCCC[C@@H]1NC(=O)[C@H]2CCCN2C(=O)[C@@H]2CCCN2C(=O)[C@H](CCCNC(=N)N)NC(=O)CC(c2cccc3ccccc23)NC(=O)[C@H](Cc2ccccc2)NC(=O)[C@H](CC(=O)O)NC(=O)[C@H](CC(=O)O)NC(=O)[C@H](Cc2ccccc2)NC(=O)CC(c2cccc3ccccc23)NC1=O (some centres unmarked) [Compound 18, Cyclo(1,10)PpR(Anapa)FDDF(Anapa)R] (cyclo(P[dP]R[X1]FDDF[X1]R))
IC50 [4, 11]: 194 ± 46 nM | toxicity to normal cells [9]: not toxic to normal cells | IC50 ([9]; read-out: IC50 MCF-10A, antiproliferative activity, normal breast epithelial cell line): 40000 nM | IC50 [5, 14]: > 50000 nM | IC50 [6, 15]: 18 ± 13 nM | IC50 [8, 12]: 853 ± 102 nM | half-life [10]: > 48 h

IC50 [4]: 373 ± 150 nM | IC50 [1]: 595 ± 270 nM | IC50 [5]: > 50000 nM | IC50 [6]: 1090 ± 310 nM | IC50 [8]: 373 ± 150 nM
Molecule: CC(=O)N[C@H](Cc1ccccc1)C(=O)NC(CC(=O)N[C@H](CCCNC(=N)N)C(N)=O)c1cccc2ccccc12 (some centres unmarked) [Compound 21, Ac-f(Anapa)r-NH2]
